Test results as given in patent publication US6703362B1, “Random peptides that bind to gastro-intestinal tract (GIT) transport receptors and related methods” (Cytogen Corporation, priority 1997, dated 2004).
Peptide text beside a SMILES is read from it. * marks the point of attachment. Dansyl = CN(C)c1cccc2c(S(=O)(=O)*)cccc12

Tested on: P100 membrane fractions derived from Caco-2 cells
Experiment: Dansylated peptide ELISA: relative binding of PAX2 and HAX42 peptides to P100 (ratio to ZElan021)
Conditions: ratio to ZElan021 = 1.00
Experimental: The peptides and proteins were analyzed by a dansylated peptide ELISA method in which 96 well plates were coated overnight at 4° C. with 100 μl/well coating protein (normally 100 μg/ml P100 membrane fraction) in 0.05M carbonate buffer pH9.6. Nonspecific binding was blocked using 200 μl/well, 2% Marvel/PBS for 2 hours at 37° C. prior to incubation with dansylated peptides. The plates were washed three times with PBS/0.05% Tween 20 and after each subsequent incubation step. […] A buffer blank control was included to ensure that background binding to plastic was not due to the antibodies used in the assay system. […] The plates were then incubated with an anti-mouse X-HRP conjugated antibody (Southern Biotech 1060-05) at a 1:10,000 dilution in blocking solution, 100 μl/well for 1 hour at room temperature. Plates were developed using 75 μl/well Bionostics TMB substrate and incubated for approximately 10 minutes. The developing reaction was stopped using Bionostics Red Stop solution (25 μl/well), and the optical density of the plates was read at 650nm.

[1] = PAX2 peptides, first 20 μg/ml column
[2] = PAX2 peptides, first 50 μg/ml column
[3] = PAX2 peptides, second 20 μg/ml column
[4] = PAX2 peptides, second 50 μg/ml column
[5] = HAX42 peptides, first 50 μg/ml column
[6] = HAX42 peptides, second 50 μg/ml column

C[C@H](NC(=O)[C@H](CC(N)=O)NC(=O)[C@@H](NC(=O)[C@@H](N)CCCCNS(=O)(=O)c1cccc2c(N(C)C)cccc12)[C@@H](C)O)C(=O)N[C@@H](CCCCN)C(=O)N[C@@H](Cc1c[nH]cn1)C(=O)N[C@@H](CO)C(=O)N[C@@H](CO)C(=O)N[C@@H](Cc1c[nH]cn1)C(=O)N[C@@H](CC(N)=O)C(N)=O [ZElan055] (H-K(Dansyl)TNAKHSSHN-NH2) was tested, and the “Binding value at 20 μg/ml” value [1] was 0.99, the “Binding value at 50 μg/ml” value [2] was 1.10 and the “Binding value at 20 μg/ml” value [3] was 0.73. The “Binding value at 50 μg/ml” value [4] was 0.59.
CC(C)C[C@H](NC(=O)[C@H](CCCNC(=N)N)NC(=O)[C@H](CCCNC(=N)N)NC(=O)[C@@H](N)CCCCNS(=O)(=O)c1cccc2c(N(C)C)cccc12)C(=O)N[C@@H](CCCNC(=N)N)C(=O)N[C@H](C(=O)N[C@@H](CCCNC(=N)N)C(=O)N[C@@H](CO)C(=O)N[C@@H](CCCNC(=N)N)C(=O)N1CCC[C@H]1C(=O)N[C@@H](CC(N)=O)C(N)=O)[C@@H](C)O [ZElan056] (H-K(Dansyl)RRLRTRSRPN-NH2) was tested, and the “Binding value at 20 μg/ml” value [1] was 0.00, the “Binding value at 50 μg/ml” value [2] was 0.21 and the “Binding value at 20 μg/ml” value [3] was 0.16. The “Binding value at 50 μg/ml” value [4] was 0.21.
For CC(C)C[C@H](NC(=O)[C@H](CCCNC(=N)N)NC(=O)[C@H](CCCNC(=N)N)NC(=O)[C@@H](N)CCCCNS(=O)(=O)c1cccc2c(N(C)C)cccc12)C(=O)N[C@@H](CCCNC(=N)N)C(=O)N[C@H](C(=O)N[C@@H](CCCNC(=N)N)C(=O)N[C@@H](CO)C(=O)N[C@@H](CCCNC(=N)N)C(N)=O)[C@@H](C)O [ZElan057] (H-K(Dansyl)RRLRTRSR-NH2), the “Binding value at 20 μg/ml” value [1] was 0.08, the “Binding value at 50 μg/ml” value [2] was 0.56 and the “Binding value at 50 μg/ml” value [4] was 0.25.
In the case of CC(C)C[C@H](NC(=O)[C@H](CCCNC(=N)N)NC(=O)[C@H](CCCNC(=N)N)NC(=O)[C@@H](N)CCCCNS(=O)(=O)c1cccc2c(N(C)C)cccc12)C(=O)N[C@@H](CCCNC(=N)N)C(=O)N[C@H](C(=O)N[C@@H](CCCNC(=N)N)C(N)=O)[C@@H](C)O [ZElan058, H2N—K(dns)RRLRTR—CONH2] (H-K(Dansyl)RRLRTR-NH2), the “Binding value at 20 μg/ml” value [1] is reported as 0.05, the “Binding value at 50 μg/ml” value [2] is reported as 0.47 and the “Binding value at 50 μg/ml” value [4] is reported as 0.16.
For CC(C)C[C@H](NC(=O)[C@H](C)NC(=O)[C@H](Cc1c[nH]cn1)NC(=O)[C@H](CC(=O)O)NC(=O)[C@H](CO)NC(=O)[C@@H](N)CCCCNS(=O)(=O)c1cccc2c(N(C)C)cccc12)C(=O)NCC(=O)N[C@H](C(=O)N[C@@H](CC(N)=O)C(=O)N[C@@H](CC(C)C)C(=O)N[C@@H](CCCNC(=N)N)C(=O)N[C@@H](CO)C(=O)N[C@@H](CC(=O)O)C(=O)N[C@@H](CC(N)=O)C(=O)N[C@@H](C)C(=O)N[C@@H](CCCCN)C(=O)N[C@@H](CCC(=O)O)C(=O)N1CCC[C@H]1C(=O)NCC(=O)N[C@@H](CC(=O)O)C(=O)N[C@@H](Cc1ccc(O)cc1)C(=O)N[C@@H](CC(N)=O)C(=O)N[C@@H](CS)C(=O)N[C@@H](CS)C(=O)NCC(=O)N[C@@H](CC(N)=O)C(=O)NCC(N)=O)[C@@H](C)O [ZElan060] (H-K(Dansyl)SDHALGTNLRSDNAKEPGDYNCCGNG-NH2), the “Binding value at 20 μg/ml” value (HAX42 peptides) was 0.44, the “Binding value at 50 μg/ml” value [5] was 0.56 and the “Binding value at 50 μg/ml” value [6] was 0.43.
CC[C@H](C)[C@H](NC(=O)[C@H](C)NC(=O)[C@H](CO)NC(=O)[C@@H]1CCCN1C(=O)[C@H](CCCNC(=N)N)NC(=O)[C@H](CCCNC(=N)N)NC(=O)[C@H](CCCNC(=N)N)NC(=O)[C@H](CC(N)=O)NC(=O)[C@H](Cc1ccccc1)NC(=O)[C@@H](NC(=O)[C@H](CCCCN)NC(=O)[C@H](CCCNC(=N)N)NC(=O)CNC(=O)[C@@H](NC(=O)[C@H](CO)NC(=O)[C@H](CC(N)=O)NC(=O)CNC(=O)[C@H](CC(N)=O)NC(=O)CNC(=O)[C@H](CS)NC(=O)[C@H](CS)NC(=O)[C@H](CC(N)=O)NC(=O)[C@H](Cc1ccc(O)cc1)NC(=O)[C@H](CC(=O)O)NC(=O)CNC(=O)[C@@H](N)CCCCNS(=O)(=O)c1cccc2c(N(C)C)cccc12)[C@@H](C)O)C(C)C)C(=O)N1CCC[C@H]1C(=O)N[C@H](C(N)=O)[C@@H](C)O [ZElan061] (H-K(Dansyl)GDYNCCGNGNSTGRKVFNRRRPSAIPT-NH2) was tested, and the “Binding value at 20 μg/ml” value (HAX42 peptides) was 0.20, the “Binding value at 50 μg/ml” value [5] was 0.60 and the “Binding value at 50 μg/ml” value [6] was 0.38.
For CC(C)C[C@H](NC(=O)[C@H](C)NC(=O)[C@H](Cc1c[nH]cn1)NC(=O)[C@H](CC(=O)O)NC(=O)[C@H](CO)NC(=O)[C@@H](N)CCCCNS(=O)(=O)c1cccc2c(N(C)C)cccc12)C(=O)NCC(=O)N[C@H](C(=O)N[C@@H](CC(N)=O)C(=O)N[C@@H](CC(C)C)C(=O)N[C@@H](CCCNC(=N)N)C(=O)N[C@@H](CO)C(=O)N[C@@H](CC(=O)O)C(=O)N[C@@H](CC(N)=O)C(=O)N[C@@H](C)C(=O)N[C@@H](CCCCN)C(=O)N[C@@H](CCC(=O)O)C(=O)N1CCC[C@H]1C(=O)NCC(N)=O)[C@@H](C)O [ZElan062] (H-K(Dansyl)SDHALGTNLRSDNAKEPG-NH2), the “Binding value at 20 μg/ml” value (HAX42 peptides) was 0.11, the “Binding value at 50 μg/ml” value [5] was 0.42 and the “Binding value at 50 μg/ml” value [6] was 0.34.
In the case of CC(C)[C@H](NC(=O)[C@H](CCCCN)NC(=O)[C@H](CCCNC(=N)N)NC(=O)[C@@H](N)CCCCNS(=O)(=O)c1cccc2c(N(C)C)cccc12)C(=O)N[C@@H](Cc1ccccc1)C(=O)N[C@@H](CC(N)=O)C(=O)N[C@@H](CCCNC(=N)N)C(=O)N[C@@H](CCCNC(=N)N)C(=O)N[C@@H](CCCNC(=N)N)C(=O)N1CCC[C@H]1C(=O)N[C@@H](CO)C(N)=O [ZElan065] (H-K(Dansyl)RKVFNRRRPS-NH2), the “Binding value at 20 μg/ml” value (HAX42 peptides) is reported as 0.00, the “Binding value at 50 μg/ml” value [5] is reported as 0.54 and the “Binding value at 50 μg/ml” value [6] is reported as 0.30.
In the case of CN(C)c1cccc2c(S(=O)(=O)NCCCC[C@H](N)C(=O)N[C@@H](CC(N)=O)C(=O)N[C@@H](CCCNC(=N)N)C(=O)N[C@@H](CCCNC(=N)N)C(=O)N[C@@H](CCCNC(=N)N)C(=O)N3CCC[C@H]3C(=O)N[C@@H](CO)C(N)=O)cccc12 [ZElan067, H2N—K(dns)NRRRPS—CONH2] (H-K(Dansyl)NRRRPS-NH2), the “Binding value at 20 μg/ml” value (HAX42 peptides) is reported as 0.08, the “Binding value at 50 μg/ml” value [5] is reported as 0.52 and the “Binding value at 50 μg/ml” value [6] is reported as 0.40.
In the case of CC(C)C[C@H](NC(=O)[C@H](C)NC(=O)[C@H](Cc1c[nH]cn1)NC(=O)[C@H](CC(=O)O)NC(=O)[C@H](CO)NC(=O)[C@@H](N)CCCCNS(=O)(=O)c1cccc2c(N(C)C)cccc12)C(=O)NCC(=O)N[C@H](C(=O)N[C@@H](CC(N)=O)C(=O)N[C@@H](CC(C)C)C(=O)N[C@@H](CCCNC(=N)N)C(=O)N[C@@H](CO)C(=O)N[C@@H](CC(=O)O)C(=O)N[C@@H](CC(N)=O)C(=O)N[C@@H](C)C(=O)N[C@@H](CCCCN)C(=O)N[C@@H](CCC(=O)O)C(=O)N1CCC[C@H]1C(=O)NCC(=O)N[C@@H](CC(=O)O)C(=O)N[C@@H](Cc1ccc(O)cc1)C(=O)N[C@@H](CC(N)=O)C(=O)N[C@@H](CS)C(=O)N[C@@H](CS)C(=O)NCC(=O)N[C@@H](CC(N)=O)C(=O)NCC(=O)N[C@@H](CC(N)=O)C(=O)N[C@@H](CO)C(=O)N[C@H](C(N)=O)[C@@H](C)O)[C@@H](C)O [ZElan070] (H-K(Dansyl)SDHALGTNLRSDNAKEPGDYNCCGNGNST-NH2), the “Binding value at 20 μg/ml” value (HAX42 peptides) is reported as 0.59, the “Binding value at 50 μg/ml” value [5] is reported as 0.97 and the “Binding value at 50 μg/ml” value [6] is reported as 0.39.
For CC(C)C[C@H](NC(=O)[C@H](CC(N)=O)NC(=O)[C@@H](N)CCCCNS(=O)(=O)c1cccc2c(N(C)C)cccc12)C(=O)N[C@@H](CCCNC(=N)N)C(=O)N[C@@H](CO)C(=O)N[C@@H](CC(=O)O)C(=O)N[C@@H](CC(N)=O)C(=O)N[C@@H](C)C(=O)N[C@@H](CCCCN)C(=O)N[C@@H](CCC(=O)O)C(=O)N1CCC[C@H]1C(=O)NCC(=O)N[C@@H](CC(=O)O)C(=O)N[C@@H](Cc1ccc(O)cc1)C(=O)N[C@@H](CC(N)=O)C(=O)N[C@@H](CS)C(=O)N[C@@H](CS)C(=O)NCC(=O)N[C@@H](CC(N)=O)C(=O)NCC(=O)N[C@@H](CC(N)=O)C(=O)N[C@@H](CO)C(=O)N[C@H](C(=O)NCC(=O)N[C@@H](CCCNC(=N)N)C(=O)N[C@@H](CCCCN)C(=O)N[C@H](C(=O)N[C@@H](Cc1ccccc1)C(=O)N[C@@H](CC(N)=O)C(=O)N[C@@H](CCCNC(=N)N)C(N)=O)C(C)C)[C@@H](C)O [ZElan071] (H-K(Dansyl)NLRSDNAKEPGDYNCCGNGNSTGRKVFNR-NH2), the “Binding value at 20 μg/ml” value (HAX42 peptides) was 1.22, the “Binding value at 50 μg/ml” value [5] was 0.89 and the “Binding value at 50 μg/ml” value [6] was 0.75.
CC[C@H](C)[C@H](NC(=O)[C@H](C)NC(=O)[C@H](CO)NC(=O)[C@@H]1CCCN1C(=O)[C@H](CCCNC(=N)N)NC(=O)[C@H](CCCNC(=N)N)NC(=O)[C@H](CC(N)=O)NC(=O)[C@H](Cc1ccccc1)NC(=O)[C@@H](NC(=O)[C@H](CCCCN)NC(=O)[C@H](CCCNC(=N)N)NC(=O)CNC(=O)[C@@H](NC(=O)[C@H](CO)NC(=O)[C@H](CC(N)=O)NC(=O)CNC(=O)[C@H](CC(N)=O)NC(=O)CNC(=O)[C@H](CS)NC(=O)[C@H](CS)NC(=O)[C@H](CC(N)=O)NC(=O)[C@H](Cc1ccc(O)cc1)NC(=O)[C@H](CC(=O)O)NC(=O)CNC(=O)[C@@H]1CCCN1C(=O)[C@@H](N)CCCCNS(=O)(=O)c1cccc2c(N(C)C)cccc12)[C@@H](C)O)C(C)C)C(=O)N1CCC[C@H]1C(=O)N[C@H](C(N)=O)[C@@H](C)O [ZElan072] (H-K(Dansyl)PGDYNCCGNGNSTGRKVFNRRPSAIPT-NH2) was tested, and the “Binding value at 20 μg/ml” value (HAX42 peptides) was 0.83, the “Binding value at 50 μg/ml” value [5] was 0.61 and the “Binding value at 50 μg/ml” value [6] was 0.88.
